The source made the active and inactive calls. The calls are words filed in the database; no cut-off is given here.
How the values were obtained:
[1] = molecular target: T1, Protein cereblon/NAD-dependent protein deacylase sirtuin-6 (Homo sapiens, UniProt Q8N6T7+Q96SW2); assay: PROTAC activity at CRBN/SIRT6 in human SK-HEP1 cells assessed as efficiency of SIRT6 degradation at 2 uM incubated for 36 hrs by Western blot analysis relative to control; assay type: cell-based
Target sequence in this assay (Q8N6T7 2-355 limits assumed): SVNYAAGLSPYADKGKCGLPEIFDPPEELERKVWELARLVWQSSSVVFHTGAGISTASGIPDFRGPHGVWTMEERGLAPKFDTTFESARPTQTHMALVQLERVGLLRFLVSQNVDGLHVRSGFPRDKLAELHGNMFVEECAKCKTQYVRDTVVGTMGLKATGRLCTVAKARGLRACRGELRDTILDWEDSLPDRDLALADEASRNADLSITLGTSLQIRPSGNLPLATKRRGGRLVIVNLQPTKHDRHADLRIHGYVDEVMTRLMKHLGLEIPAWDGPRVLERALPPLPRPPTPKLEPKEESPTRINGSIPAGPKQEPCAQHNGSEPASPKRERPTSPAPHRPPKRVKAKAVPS
Target sequence in this assay (Q96SW2 whole entry partner): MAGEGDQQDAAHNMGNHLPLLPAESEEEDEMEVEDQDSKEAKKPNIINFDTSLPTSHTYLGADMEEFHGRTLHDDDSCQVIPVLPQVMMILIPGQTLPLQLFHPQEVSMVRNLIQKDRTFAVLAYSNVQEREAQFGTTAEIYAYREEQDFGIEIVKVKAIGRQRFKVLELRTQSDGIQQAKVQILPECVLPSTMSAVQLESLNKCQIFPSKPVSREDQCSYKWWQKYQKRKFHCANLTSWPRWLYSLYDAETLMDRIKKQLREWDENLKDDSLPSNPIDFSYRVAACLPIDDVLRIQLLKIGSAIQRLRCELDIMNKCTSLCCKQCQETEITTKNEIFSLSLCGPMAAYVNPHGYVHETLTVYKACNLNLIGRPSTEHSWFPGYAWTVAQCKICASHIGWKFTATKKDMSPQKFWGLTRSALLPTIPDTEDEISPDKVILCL

[2] = molecular target: T1, Protein cereblon/NAD-dependent protein deacylase sirtuin-6; assay: PROTAC activity at CRBN/SIRT6 in human Huh-7 cells assessed as induction of SIRT6 degradation upto 10 uM incubated for 36 hrs by Western blot analysis relative to control; assay type: cell-based
Target sequence in this assay (Q8N6T7 2-355 limits assumed): as the sequence (Q8N6T7 2-355 limits assumed) above
Target sequence in this assay (Q96SW2 whole entry partner): as the sequence (Q96SW2 whole entry partner) above

[3] = molecular target: T1, Protein cereblon/NAD-dependent protein deacylase sirtuin-6; assay: PROTAC activity at CRBN/SIRT6 in human SK-HEP1 cells assessed as induction of SIRT6 degradation incubated for 36 hrs by Western blot analysis; assay type: cell-based; conditions: for Activity: dose 0.02-5 µM
[4] = molecular target: T1, Protein cereblon/NAD-dependent protein deacylase sirtuin-6; assay: PROTAC activity at CRBN/SIRT6 in human SK-HEP1 cells assessed as induction of SIRT6 degradation at 2 uM incubated for 36 hrs by In-Cell ELISA relative to control; assay type: cell-based
Target sequence in this assay (Q8N6T7 2-355 limits assumed): as the sequence (Q8N6T7 2-355 limits assumed) above
Target sequence in this assay (Q96SW2 whole entry partner): as the sequence (Q96SW2 whole entry partner) above

[5] = system: SK-HEP1; assay: Cytotoxicity against human SK-HEP1 cells incubated for 72 hrs by CCK8 assay; assay type: functional, cell-based; conditions: SK-HEP1, 72 h
[6] = molecular target: T1, Protein cereblon/NAD-dependent protein deacylase sirtuin-6; assay: PROTAC activity at CRBN/SIRT6 in human SK-HEP1 cells assessed as induction of SIRT6 degradation upto 10 uM incubated for 36 hrs by Western blot analysis relative to control; assay type: cell-based
Target sequence in this assay (Q8N6T7 2-355 limits assumed): as the sequence (Q8N6T7 2-355 limits assumed) above
Target sequence in this assay (Q96SW2 whole entry partner): as the sequence (Q96SW2 whole entry partner) above

[7] = molecular target: T1, Protein cereblon/NAD-dependent protein deacylase sirtuin-6; assay: PROTAC activity at CRBN/SIRT6 in human Huh-7 cells assessed as induction of SIRT6 degradation incubated for 36 hrs by Western blot analysis; assay type: cell-based
[8] = molecular target: T1, Protein cereblon/NAD-dependent protein deacylase sirtuin-6; assay: PROTAC activity at CRBN/SIRT6 in human SK-HEP1 cells assessed as induction of SIRT6 degradation at 2 to 3 uM incubated for 36 hrs by Western blot analysis; assay type: cell-based; conditions: dose 2-3 µM
Target sequence in this assay (Q8N6T7 2-355 limits assumed): as the sequence (Q8N6T7 2-355 limits assumed) above
Target sequence in this assay (Q96SW2 whole entry partner): as the sequence (Q96SW2 whole entry partner) above

[9] = molecular target: T1, Protein cereblon/NAD-dependent protein deacylase sirtuin-6; assay: PROTAC activity at CRBN/SIRT6 in human SK-HEP1 cells assessed as hook effect upto 5 uM incubated for 36 hrs by Western blot analysis; assay type: cell-based
Target sequence in this assay (Q8N6T7 2-355 limits assumed): as the sequence (Q8N6T7 2-355 limits assumed) above
Target sequence in this assay (Q96SW2 whole entry partner): as the sequence (Q96SW2 whole entry partner) above

[10] = molecular target: T1, Protein cereblon/NAD-dependent protein deacylase sirtuin-6; assay: PROTAC activity at CRBN/SIRT6 in human SK-HEP1 cells assessed as induction of SIRT6 degradation at 200 nM incubated for 36 hrs by In-Cell ELISA relative to control; assay type: cell-based
[11] = system: SK-HEP1; assay: Induction of SIRT6 degradation in human SK-HEP1 cells at 5 uM incubated for 36 hrs by In-Cell ELISA relative to control; assay type: cell-based
[12] = molecular target: NAD-dependent protein deacylase sirtuin-6 (Homo sapiens) (UniProt Q8N6T7); assay: Inhibition of SIRT6 in human SK-HEP1 cells assessed as increase in H3K9Ac level incubated for 36 hrs by Western blot analysis; assay type: cell-based; conditions: dose 1.25-20 µM
Chain of NAD-dependent protein deacylase sirtuin-6 (Homo sapiens) (Q8N6T7 whole entry): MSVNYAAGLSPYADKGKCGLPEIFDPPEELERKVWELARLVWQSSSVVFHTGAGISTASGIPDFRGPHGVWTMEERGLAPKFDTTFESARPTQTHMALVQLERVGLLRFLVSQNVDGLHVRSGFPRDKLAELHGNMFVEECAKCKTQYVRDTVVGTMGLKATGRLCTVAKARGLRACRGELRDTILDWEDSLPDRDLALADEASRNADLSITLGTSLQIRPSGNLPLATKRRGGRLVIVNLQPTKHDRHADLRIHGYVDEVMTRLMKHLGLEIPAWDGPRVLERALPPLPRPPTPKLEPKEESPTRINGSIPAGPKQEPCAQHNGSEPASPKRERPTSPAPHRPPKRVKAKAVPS

[13] = system: SK-HEP1; assay: Induction of SIRT6 degradation in human SK-HEP1 cells at 0.5 uM incubated for 36 hrs by In-Cell ELISA relative to control; assay type: cell-based
[14] = molecular target: T1, Protein cereblon/NAD-dependent protein deacylase sirtuin-6; assay: PROTAC activity at CRBN/SIRT6 in human SK-HEP1 cells assessed as induction of SIRT6 degradation at 0.02 to 5 uM incubated for 36 hrs by Western blot analysis; assay type: cell-based; conditions: dose 0.02-5 µM
[15] = molecular target: T1, Protein cereblon/NAD-dependent protein deacylase sirtuin-6; assay: PROTAC activity at CRBN/SIRT6 in human Huh-7 cells assessed as hook effect at 5 uM incubated for 36 hrs by Western blot analysis; assay type: cell-based
[16] = Toxicity in BALB/c nude mouse xenografted with human SK-HEP1 cells assessed as pathological damage in spleen at 25 mg/kg treated for 28 to 30 days by H and E staining based analysis; assay type: organism-based; conditions: in vivo, time 28-30 day
[17] = Toxicity in BALB/c nude mouse xenografted with human SK-HEP1 cells assessed as histopathological abnormalities in spleen at 25 mg/kg treated for 28 to 30 days by H and E staining based analysis; assay type: organism-based; conditions: in vivo, time 28-30 day
[18] = Toxicity in BALB/c nude mouse xenografted with human SK-HEP1 cells assessed as pathological damage in lungs at 25 mg/kg treated for 28 to 30 days by H and E staining based analysis; assay type: organism-based; conditions: in vivo, time 28-30 day
[19] = Toxicity in BALB/c nude mouse xenografted with human SK-HEP1 cells assessed as pathological damage in kidney at 25 mg/kg treated for 28 to 30 days by H and E staining based analysis; assay type: organism-based; conditions: in vivo, time 28-30 day
[20] = Toxicity in BALB/c nude mouse xenografted with human SK-HEP1 cells assessed as body weight loss at 25 mg/kg treated for 28 to 30 days; assay type: organism-based; conditions: in vivo, time 28-30 day
[21] = Toxicity in BALB/c nude mouse xenografted with human SK-HEP1 cells assessed as pathological damage in heart at 25 mg/kg treated for 28 to 30 days by H and E staining based analysis; assay type: organism-based; conditions: in vivo, time 28-30 day
[22] = Toxicity in BALB/c nude mouse xenografted with human SK-HEP1 cells assessed as pathological damage in liver at 25 mg/kg treated for 28 to 30 days by H and E staining based analysis; assay type: organism-based; conditions: in vivo, time 28-30 day
[23] = Toxicity in BALB/c nude mouse xenografted with human SK-HEP1 cells assessed as histopathological abnormalities in lungs at 25 mg/kg treated for 28 to 30 days by H and E staining based analysis; assay type: organism-based; conditions: in vivo, time 28-30 day
[24] = system: SK-HEP1; assay: Antitumor activity against human SK-HEP1 cells xenografted in BALB/c nude mouse at 25 mg/kg treated for 28 to 30 days relative to control; assay type: functional; conditions: time 28-30 day
[25] = Toxicity in BALB/c nude mouse xenografted with human SK-HEP1 cells assessed as histopathological abnormalities in heart at 25 mg/kg treated for 28 to 30 days by H and E staining based analysis; assay type: organism-based; conditions: in vivo, time 28-30 day

| SMILES | Activity [1] | Emax [2] | DC50 [3] | Activity [3] | Activity [4] | Emax [6] | DC50 [7] | Activity [8] | Activity [9] | Activity [10] | IC50 [5] | further results |
| --- | --- | --- | --- | --- | --- | --- | --- | --- | --- | --- | --- | --- |
| Nc1cc(N2CCN(CC3CCN(c4ccc5c(c4)C(=O)N(C4CCC(=O)NC4=O)C5=O)C3)CC2)ccc1[N+](=O)[O-] (configuration not stated) | > 95% | 78.5% | 91.5 nM | Dose-dependent-effect | 98.2% | 96.2% | 360 nM | Active | inactive | 11.9% | 2190 nM |  |
| CN1CCN(c2ccc([N+](=O)[O-])c(N)c2)CC1 |  |  |  |  |  |  |  |  |  |  | 4260 nM | Activity [11]: 4.9%; inhibition [12]: Dose-dependent-effect; Activity [13]: 1.8% |
| CNC(=O)c1cc(Oc2ccc(NC(=O)Nc3ccc(Cl)c(C(F)(F)F)c3)cc2)ccn1 [SORAFENIB] |  |  |  |  |  |  |  |  |  |  |  | Activity [16]: Non-toxic; Activity [17]: Non-toxic; Activity [18]: Non-toxic; Activity [19]: Non-toxic; Activity [20]: Toxic; Activity [21]: Non-toxic; Activity [22]: Non-toxic; Activity [23]: Non-toxic; T/C [24]: 35.4%; Activity [25]: Non-toxic |

More lines, main results first:

| Activity [1] | Emax [2] | DC50 [3] | Activity [3] | Activity [4] | Emax [6] | DC50 [7] | Activity [8] | Activity [9] | Activity [10] | SMILES | IC50 [5] | further results |
| --- | --- | --- | --- | --- | --- | --- | --- | --- | --- | --- | --- | --- |
| > 95% | 90.6% | 106 nM | Dose-dependent-effect | 93.6% | 94.8% | 239 nM | Active | inactive | 85.9% | Nc1cc(N2CCN(CC3CCN(c4ccc5c(c4)C(=O)N(C4CCC(=O)NC4=O)C5=O)CC3)CC2)ccc1[N+](=O)[O-] (configuration not stated) | 1750 nM |  |
|  | 81.5% | 50.4 nM |  | 94.6% | 97.7% | 263 nM | Active |  | 90.3% | Nc1cc(N2CCN(CCCC3CCN(c4cc5c(cc4F)C(=O)N(C4CCC(=O)NC4=O)C5=O)CC3)CC2)ccc1[N+](=O)[O-] (configuration not stated) | 1640 nM | Activity [14]: Active; Activity ([7]; dose 0.008-5 µM): Dose-dependent-effect; But Reduced Degradation Efficiency Observed; Activity [15]: Active |

Source: ChEMBL document CHEMBL6120963, “Discovery of Novel PROTAC SIRT6 Degraders with Potent Efficacy against Hepatocellular Carcinoma” (J Med Chem, 2024)
